The test deals with P388 leukemia ip, CD2F1 mice, survival T/C. Briefly: NCI In Vivo Anticancer Drug Screen. Data for tumor model P388 Leukemia (intraperitoneal) in CD2F1 (CDF1) mice. As to conditions: endpoint: median survival time, higher = longer survival. An outline of the steps: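 Mice carrying the transplanted tumor received test compound or vehicle. Survival was recorded in each group, and the value is the treated-group measurement divided by that of the vehicle-treated control group.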

The mark [1] stands for this setting: dose: 12.5 mg/kg/injection, schedule: Q01DX005 (ip), vehicle: Klucel (hydroxypropylcellulose) (HPC).
The mark [2] stands for this setting: dose: 25.0 mg/kg/injection, schedule: Q01DX005 (ip), vehicle: Klucel (hydroxypropylcellulose) (HPC).
Where [3] appears, read: dose: 50.0 mg/kg/injection, schedule: Q01DX005 (ip), vehicle: saline with Tween-80.
Where [4] appears, read: dose: 100.0 mg/kg/injection, schedule: Q01DX005 (ip), vehicle: saline with Tween-80.
Setting [5] is: dose: 200.0 mg/kg/injection, schedule: Q01DX005 (ip), vehicle: saline with Tween-80.
Setting [6] is: dose: 50.0 mg/kg/injection, schedule: Q01DX005 (ip), vehicle: Klucel (hydroxypropylcellulose) (HPC).
Setting [7] is: dose: 100.0 mg/kg/injection, schedule: Q01DX005 (ip), vehicle: Klucel (hydroxypropylcellulose) (HPC).
Where [8] appears, read: dose: 200.0 mg/kg/injection, schedule: Q01DX005 (ip), vehicle: Klucel (hydroxypropylcellulose) (HPC).
[9] abbreviates: dose: 12.5 mg/kg/injection, schedule: Q01DX009 (ip), vehicle: saline with Tween-80.
[10] abbreviates: dose: 25.0 mg/kg/injection, schedule: Q01DX009 (ip), vehicle: saline with Tween-80.
Setting [11] is: dose: 60.0 mg/kg/injection, schedule: Q01DX005 (ip), vehicle: saline with Tween-80.
[12] abbreviates: dose: 120.0 mg/kg/injection, schedule: Q01DX005 (ip), vehicle: saline with Tween-80.
[13] abbreviates: dose: 240.0 mg/kg/injection, schedule: Q01DX005 (ip), vehicle: saline with Tween-80.

Values joined by “and” are separate entries in the source; they are usually repeats but may differ in a detail not shown here. Equal entries are not always repeated. Toxic doses and inconclusive results are not listed. Peptide text beside a SMILES is read from it. * marks the point of attachment. Cbz = O=C(OCc1ccccc1)*

Consider 24 compounds from PubChem BioAssay AID330 (DTP/NCI, 2004).

Take `CN(C)CCCOc1ccccc1NC1=C(Cl)C(=O)C(Nc2ccccc2OCCCN(C)C)=C(Cl)C1=O`: the T/C (dose: 6.25 mg/kg/injection, schedule: Q01DX005 (ip), vehicle: Klucel (hydroxypropylcellulose) (HPC)) is 108 % of control; the T/C under setting [1] is 99 % of control; the T/C under setting [2] is 97 % of control.

Regarding `CC(NC(=O)C1CCCN1C(=O)OCc1ccccc1)C(=O)O` (centres undefined), the T/C under setting [3] was 106 % of control, the T/C under setting [4] is 100 % of control and the T/C under setting [5] was 100 % of control.

As for `O=C(O)C1CCCN1C(=O)OCC1c2ccccc2-c2ccccc21` (centres undefined), the T/C reads like this: under setting [6], 99 % of control; under setting [7], 99 % of control; under setting [8], 95 % of control.

For the compound `CN(C)c1ccc(Cc2ccc(N(C)C)c(C(O)(c3ccccc3)c3ccccc3)c2)cc1C(O)(c1ccccc1)c1ccccc1`, the T/C was 100 % of control (dose: 1.56 mg/kg/injection, schedule: Q01DX005 (ip), vehicle: saline); 97 % of control (dose: 3.13 mg/kg/injection, schedule: Q01DX005 (ip), vehicle: saline); 90 % of control (dose: 6.25 mg/kg/injection, schedule: Q01DX005 (ip), vehicle: saline).

For `COc1cc(Cl)c(CC(=O)c2c[nH]c3ccccc23)cc1OC`, the T/C reads like this: (dose: 6.25 mg/kg/injection, schedule: Q01DX009 (ip), vehicle: saline with Tween-80) 94 % of control; under setting [9], 92 % of control; under setting [10], 100 % of control; (dose: 50.0 mg/kg/injection, schedule: Q01DX009 (ip), vehicle: saline with Tween-80) 93 % of control.

Regarding `CCC(C)C(NC(=O)C1CCCN1C(=O)OCc1ccccc1)C(=O)O` (stereo not drawn) (Cbz-Pro-Ile-OH; configuration not given here), the T/C is 100 % of control under setting [3], 106 % of control under setting [4] and 98 % of control under setting [5].

On to `CNC/C=C/CN(C)C(=S)S`, for which the T/C by setting is: (dose: 50.0 mg/kg/injection, schedule: Q01DX009 (ip), vehicle: saline) 108 % of control; (dose: 100.0 mg/kg/injection, schedule: Q01DX009 (ip), vehicle: saline) 92 % of control; (dose: 200.0 mg/kg/injection, schedule: Q01DX009 (ip), vehicle: saline) 96 % of control.

For `O=C(CCC(=O)Nc1cc(Cl)ccc1Cl)CC(=O)c1ccc(Cl)cc1`, the T/C is, setting by setting: (dose: 60.0 mg/kg/injection, schedule: Q01DX005 (ip), vehicle: saline) 109 % of control; (dose: 120.0 mg/kg/injection, schedule: Q01DX005 (ip), vehicle: saline) 106 % of control; (dose: 240.0 mg/kg/injection, schedule: Q01DX005 (ip), vehicle: saline) 109 % of control.

Take `O=C1[C@@H]2[C@H](C(=O)N1c1ccccc1)[C@H]1CC[C@H]2N1C(=O)c1ccccc1`: the T/C is 96 % of control under setting [11], 100 % of control under setting [12] and 88 % of control under setting [13].

Turning to `Cc1c(C2=C(Br)C(=O)N(C)C2=O)c(=O)n(C)c(=O)n1C`, the T/C is, setting by setting: (dose: 60.0 mg/kg/injection, schedule: Q01DX005 (ip), vehicle: Klucel (hydroxypropylcellulose) (HPC)) 111 % of control; (dose: 120.0 mg/kg/injection, schedule: Q01DX005 (ip), vehicle: Klucel (hydroxypropylcellulose) (HPC)) 118 % of control.

Turning to `COC(=O)C1CCCN1C(=O)C(CCCCNC(=O)OCc1ccccc1)NC(=O)OCc1ccccc1` (centres undefined) (Cbz-Lys(Cbz)-Pro-OMe; configuration not given here), the T/C runs as follows: (dose: 50.0 mg/kg/injection, schedule: Q01DX005 (ip), vehicle: saline) 106 % of control; (dose: 100.0 mg/kg/injection, schedule: Q01DX005 (ip), vehicle: saline) 103 % of control; (dose: 200.0 mg/kg/injection, schedule: Q01DX005 (ip), vehicle: saline) 105 % of control.

As to `COc1ccc(C(c2c(O)c3ccccc3oc2=O)N2CCOCC2)c(OC)c1` (centres undefined), the T/C runs as follows: under setting [11], 99 % of control; under setting [12], 107 % of control.

As for `O=NNc1nccnn1`, the T/C was 105 % of control (dose: 3.12 mg/kg/injection, schedule: Q01DX009 (ip), vehicle: water); 107 % of control (dose: 6.25 mg/kg/injection, schedule: Q01DX009 (ip), vehicle: water); 105 % of control (dose: 12.5 mg/kg/injection, schedule: Q01DX009 (ip), vehicle: water); 108 % of control and 111 % of control (dose: 25.0 mg/kg/injection, schedule: Q01DX009 (ip), vehicle: water); 114 % of control and 118 % of control (dose: 50.0 mg/kg/injection, schedule: Q01DX009 (ip), vehicle: water); 120 % of control (dose: 100.0 mg/kg/injection, schedule: Q01DX009 (ip), vehicle: water). Besides, the T/C (dose: 200.0 mg/kg/injection, schedule: Q01DX009 (ip), vehicle: water) is 119 % of control.

Consider `Cc1cc2c(c(O)cc(=O)n2Cc2ccccc2)c(=O)n1Cc1ccccc1`, for which the T/C by setting is: under setting [6], 102 % of control; under setting [7], 94 % of control; under setting [8], 100 % of control.

Turning to `Cc1nn(Cc2ccccc2)c(C)c1-c1c(C)nn(Cc2ccccc2)c1C`, the T/C is 104 % of control under setting [6], 103 % of control under setting [7] and 99 % of control under setting [8].

Take `O=C1OC(C(Cl)(Cl)Cl)Nc2ccccc21` (centres undefined): the T/C runs as follows: under setting [6], 111 % of control; under setting [7], 111 % of control.

Take `CC(=O)n1nc(Cl)c2cccnc2c1=O`: the T/C under setting [3] was 98 % of control, the T/C under setting [4] is 99 % of control and the T/C under setting [5] was 107 % of control.

Turning to `Nc1nc(N)c2cc(CNc3ccc(C(=O)NC(CC(=O)O)CC(=O)O)cc3)ccc2n1`, the T/C is 203 % of control under setting [9]; 226 % of control under setting [10]; 168 % of control (dose: 100.0 mg/kg/injection, schedule: Q01DX009 (ip), vehicle: saline sonified); 99 % of control (dose: 100.0 mg/kg/injection, schedule: Q01DX009 (ip), vehicle: saline with Tween-80); 181 % of control (dose: 100.0 mg/kg/injection, schedule: Q04DX003 (ip), vehicle: saline sonified); 204 % of control (dose: 200.0 mg/kg/injection, schedule: Q01DX009 (ip), vehicle: saline sonified). Further, the T/C was 87 % of control (dose: 200.0 mg/kg/injection, schedule: Q01DX009 (ip), vehicle: saline with Tween-80); 150 % of control (dose: 200.0 mg/kg/injection, schedule: Q04DX003 (ip), vehicle: saline sonified); 159 % of control (dose: 400.0 mg/kg/injection, schedule: Q01DX009 (ip), vehicle: saline sonified); 113 % of control (dose: 400.0 mg/kg/injection, schedule: Q04DX003 (ip), vehicle: saline sonified).

Regarding `CCOC(=O)C1=C(C)NC(CO)=C(C(=O)OCC)C1c1cccc([N+](=O)[O-])c1` (centres undefined), the T/C is 94 % of control under setting [3], 95 % of control under setting [4] and 92 % of control under setting [5].

With `CC(=O)OC1COC(n2cnc3c(Cl)nc(Cl)nc32)C(OC(C)=O)C1OC(C)=O` (centres undefined), the T/C reads like this: under setting [6], 107 % of control; under setting [7], 108 % of control.

Consider `CCOC(=O)CN(CCN(CC)CC)c1ccc([N+](=O)[O-])cc1[N+](=O)[O-]`, for which the T/C reads like this: (dose: 100.0 mg/kg/injection, schedule: Q01DX001 (ip), vehicle: other) 95 % of control; (dose: 200.0 mg/kg/injection, schedule: Q01DX001 (ip), vehicle: other) 100 % of control.

As for `C[n+]1cccc(Oc2ccc[n+](C)c2)c1`, the T/C by setting is: under setting [11], 100 % of control; under setting [12], 99 % of control; under setting [13], 109 % of control.

On to `O=S1(=O)CC23C=CC=CC2(CCCC3)C1Cl` (centres undefined), for which the T/C reads like this: under setting [1], 93 % of control; under setting [2], 89 % of control; under setting [6], 91 % of control.

With `C#CC(C(O)c1ccccc1)N1CCOCC1` (centres undefined), the T/C (dose: 100.0 mg/kg/injection, schedule: Q04DX003 (ip), vehicle: saline) is 104 % of control; the T/C (dose: 200.0 mg/kg/injection, schedule: Q04DX003 (ip), vehicle: saline) is 102 % of control; the T/C (dose: 400.0 mg/kg/injection, schedule: Q04DX003 (ip), vehicle: saline) was 101 % of control.
